According to patent US20080014247A1, “METAL-CONTAINING FORMULATIONS AND METHODS OF USE” (Nucryst Pharmaceuticals, priority 2006, published 2008):

Legend:
[1] = tested on: Pseudomonas aeruginosa; assay: MIC assay (microdilution); format: cell-based
[2] = tested on: Staphylococcus epidermidis; assay: MIC assay (microdilution); format: cell-based
[3] = tested on: Escherichia coli; assay: MIC assay (microdilution); format: cell-based
[4] = tested on: Burkholderia multivorans; assay: MIC assay (microdilution); format: cell-based
[5] = tested on: Staphylococcus aureus; assay: MIC assay (microdilution); format: cell-based
[6] = tested on: Streptococcus pneumoniae; assay: MIC assay (microdilution); format: cell-based; details: lactate solutions
[7] = tested on: Proteus mirabilis; assay: MIC assay (microdilution); format: cell-based; details: isolate NP405
[8] = tested on: Prot. mirabilis; assay: Minimal bactericidal concentration (MBC) assay; format: cell-based, Proteus mirabilis; details: isolate NP405
Procedure: (§1) Minimal bactericidal concentration (MBC) assay—Overnight-grown MIC plates, prepared as described in Example 16, were evaluated to determine the MIC. Culture was then sampled from wells at and near the MIC using sterile inoculating loops, and transferred to fresh MHA plates to determine if viable bacteria remained. […] The MBC was determined as the well in the MIC plate which contained the lowest concentration of silver yielding no bacterial growth on the MHA plate.

[9] = tested on: Klebsiella pneumoniae; assay: MIC assay (microdilution); format: cell-based
[10] = tested on: Staph epidermidis; assay: Minimal bactericidal concentration (MBC) assay; format: cell-based, Staphylococcus epidermidis
Procedure: as §1

[11] = tested on: B. multivorans; assay: Minimal bactericidal concentration (MBC) assay; format: cell-based, Burkholderia multivorans
Procedure: as §1

[12] = tested on: B dolosa; assay: Minimal bactericidal concentration (MBC) assay; format: cell-based, Burkholderia dolosa
Procedure: as §1

[13] = tested on: K. pneumoniae; assay: Minimal bactericidal concentration (MBC) assay; format: cell-based, Klebsiella pneumoniae
Procedure: as §1

[14] = tested on: E. coli; assay: Minimal bactericidal concentration (MBC) assay; format: cell-based, Escherichia coli
Procedure: as §1

[15] = tested on: Enterobacter cloacae; assay: MIC assay (microdilution); format: cell-based
[16] = tested on: Ps. aeruginosa; assay: Minimal bactericidal concentration (MBC) assay; format: cell-based, Pseudomonas aeruginosa
Procedure: as §1

[17] = tested on: Strep. pyogenes; assay: Minimal bactericidal concentration (MBC) assay; format: cell-based, Streptococcus pyogenes
Procedure: as §1

[18] = tested on: C. freundii; assay: Minimal bactericidal concentration (MBC) assay; format: cell-based, Citrobacter freundii; details: isolate NP410
Procedure: as §1

[19] = tested on: Ser. marcescens; assay: Minimal bactericidal concentration (MBC) assay; format: cell-based, Serratia marcescens
Procedure: as §1

[20] = tested on: Citrobacter freundii; assay: MIC assay (microdilution); format: cell-based; details: isolate NP410
[21] = tested on: Staph. aureus; assay: Minimal bactericidal concentration (MBC) assay; format: cell-based, Staphylococcus aureus
Procedure: as §1

[22] = tested on: Burkholderia dolosa; assay: MIC assay (microdilution); format: cell-based
[23] = tested on: Mycobacterium tuberculosis H37Ra (ATCC 25177); assay: microbe, parasite or virus in culture; format: cell-based
[24] = tested on: Shigella flexneri; assay: MIC assay (microdilution); format: cell-based; details: ATCC 12022
[25] = tested on: Streptococcus pyogenes; assay: MIC assay (microdilution); format: cell-based
[26] = tested on: Serratia marcescens; assay: MIC assay (microdilution); format: cell-based

## O=[N+]([O-])[O-].[Ag+] [AgNO3, silver nitrate]
[1]; ATCC 9027
  MIC: 1 parts silver per million
[1]; ATCC 27317
  MIC: 2 parts silver per million
[1]; P. aerug (ATCC), lactate solutions
  MIC: 3 µg/mL
[1]; P. aerug. (clin.), lactate solutions
  MIC: 3 µg/mL
[1]; isolate NP201
  MIC: 1 parts silver per million
[1]; isolate NP204
  MIC: 1 parts silver per million
[1]; isolate NP206
  MIC: 1 parts silver per million
[1]; isolate NP212, formulation type Lactate
  MIC: 2 ppm
[1]; isolate NP212, formulation type Water/Lecithin
  MIC: 3 ppm
[1]; isolate NP212, formulation type Water/PVA
  MIC: 3 ppm
[2]; ATCC 12228
  MIC: 3 parts silver per million
[2]; S. epiderm (ATCC), lactate solutions
  MIC: 3 µg/mL
[2]; isolate NP136
  MIC: 3 parts silver per million
[3]; ATCC 8739
  MIC: 0.4 parts silver per million
[3]; ATCC 43745
  MIC: 1 parts silver per million
[3]; E. coli (ATCC), lactate solutions
  MIC: 3 µg/mL
[3]; isolate NP412
  MIC: 1 parts silver per million
[4]; isolate B1
  MIC: 3 parts silver per million
[4]; isolate B2
  MIC: 3 parts silver per million
[4]; isolate B4
  MIC: 2 parts silver per million
[5]; ATCC 6538
  MIC: 6 parts silver per million
[5]; ATCC 700699
  MIC: 3 parts silver per million
[5]; S. aureus (ATCC), lactate solutions
  MIC: 11 µg/mL
[5]; S. aureus (clin.), lactate solutions
  MIC: 5 µg/mL
[5]; isolate NP101
  MIC: 6 parts silver per million
[5]; isolate NP102
  MIC: 6 parts silver per million
[5]; isolate NP103
  MIC: 6 parts silver per million
[6]; S. pneumo (clin 314)
  MIC: 11 µg/mL
[6]; S. pneumo (clin 315)
  MIC: 21 µg/mL
[7]
  MIC: 6 parts silver per million
[8]
  MBC: 13 parts silver per million
[9]; aerobic +
  MIC: 3 µg/mL
[9]; aerobic − (anaerobic)
  MIC: 3 µg/mL
[9]; isolate NP401
  MIC: 3 parts silver per million
[9]; isolate NP403
  MIC: 6 parts silver per million
[9]; isolate NP403, second entry
  MIC: 6 parts silver per million
[9]; isolate NP406
  MIC: 1 parts silver per million
[10]; ATCC 12228
  MBC: 3 parts silver per million
[10]; isolate NP136
  MBC: 3 parts silver per million
[11]; isolate B1
  MBC: 3 parts silver per million
[11]; isolate B2
  MBC: 3 parts silver per million
[11]; isolate B4
  MBC: 3 parts silver per million
[12]; isolate A3
  MBC: 3 parts silver per million
[12]; isolate A4
  MBC: 2 parts silver per million
[13]; isolate NP401
  MBC: 3 parts silver per million
[13]; isolate NP403
  MBC: 6 parts silver per million
[13]; isolate NP403, second entry
  MBC: 3 parts silver per million
[13]; isolate NP406
  MBC: 1 parts silver per million
[14]; ATCC 8739
  MBC: 0.4 parts silver per million
[14]; ATCC 43745
  MBC: 0.4 parts silver per million
[14]; isolate NP412
  MBC: 1 parts silver per million
[15]; aerobic +
  MIC: 13 µg/mL
[15]; aerobic − (anaerobic)
  MIC: 25 µg/mL
[16]; ATCC 27317
  MBC: 3 parts silver per million
[16]; isolate NP201
  MBC: 3 parts silver per million
[16]; isolate NP204
  MBC: 3 parts silver per million
[16]; isolate NP206
  MBC: 1 parts silver per million
[17]; isolate NP303
  MBC: 10 parts silver per million
[17]; isolate NP304
  MBC: 21 parts silver per million
[17]; isolate NP306
  MBC: 21 parts silver per million
[18]
  MBC: 3 parts silver per million
[19]; isolate NP402
  MBC: 6 parts silver per million
[19]; isolate NP402, second entry
  MBC: 6 parts silver per million
[19]; isolate NP408
  MBC: 6 parts silver per million
[19]; isolate NP408, second entry
  MBC: 11 parts silver per million
[20]
  MIC: 3 parts silver per million
[21]; ATCC 6538
  MBC: 6 parts silver per million
[21]; ATCC 700699
  MBC: 6 parts silver per million
[21]; isolate NP101
  MBC: 11 parts silver per million
[21]; isolate NP102
  MBC: 6 parts silver per million
[21]; isolate NP103
  MBC: 6 parts silver per million
[22]; isolate A3
  MIC: 2 parts silver per million
[22]; isolate A4
  MIC: 2 parts silver per million
[23]
  MIC: 2.5 μg/ml silver
[24]; formulation type Lactate
  MIC: 2 ppm
[24]; formulation type Water/Lecithin
  MIC: 2 ppm
[24]; formulation type Water/PVA
  MIC: 1 ppm
[25]; S. pyog (clin. 303), lactate solutions
  MIC: 3 µg/mL
[25]; S. pyog (clin. 304), lactate solutions
  MIC: 5 µg/mL
[25]; isolate NP303
  MIC: 3 parts silver per million
[25]; isolate NP304
  MIC: 6 parts silver per million
[25]; isolate NP306
  MIC: 6 parts silver per million
[26]; aerobic +
  MIC: 6 µg/mL
[26]; aerobic − (anaerobic)
  MIC: 13 µg/mL
[26]; isolate NP402
  MIC: 6 parts silver per million
[26]; isolate NP402, second entry
  MIC: 6 parts silver per million
[26]; isolate NP408
  MIC: 6 parts silver per million
[26]; isolate NP408, second entry
  MIC: 11 parts silver per million
